Measured values: patent US20200352914A1, “METHODS OF TREATING HYPERTENSION WITH ACTIVATORS OF TIE-2” (Aerpio Pharmaceuticals, Inc., priority 2019, published 2020)

Key:
eNOS = eNOS and Akt phosphorylation in human endothelial cells (immunoprecipitation, immunoblotting); format: cell-based
Description: Confluent monolayers of human endothelial cells expressing FLAG-tagged eNOS cultured overnight in MCDB131 containing 0.1% BSA and then incubated with increasing concentrations of Compound 2 (0.3-30 μmol/L) or solvent (DMSO) for 30 minutes. In separate experiments, human endothelial cells were cultured overnight in MCDB131 containing 0.1% BSA and then incubated treated with Compound 2 (30 μmol/L) or solvent for 30 minutes and then stimulated with Yoda1 (1 μmol/L) or solvent for an additional 30 minutes. To inhibit Src, cells were pre-incubated with PP2 (1 μmol/L) for 30 min before incubation with Compound 2 and stimulation with Yoda1. After two washes with cold PBS, cells were collected with the aid of cell scrapers in a lysis buffer containing Tris/HCl pH 7.5 (50 mmol/L), NaCl (150 mmol/L), Triton X-100 (1%), NaPPi (10 mmol/L), NaF (20 mmol/L), orthovanadate (2 mmol/L), okadaic acid (10 nmol/L), β-glycerophosphate (50 mmol/L), phenylmethylsulfonyl fluoride (230 μmol/L), and EDTA-free protease inhibitors mix. The cell mixture was incubated for 30 minutes at 4° C. with vortexing, followed by centrifugation at 13000 rpm for 10 minutes at 4° C. To assess the eNOS-VE-PTP interaction, the following modifications were applied: 1) cells were incubated with the lysis buffer for one hour on an end-over-end rocker at 4° C. and gently vortexed until no cell clumps were observed; 2) lysates were not centrifuged after lysis. FLAG-tagged eNOS was immunoprecipitated using 30 μL of packed Anti-FLAG M2 Affinity Gel per mg protein lysate overnight. The recovered immunoprecipitates were washed three times with the lysis buffer, eluted by boiling samples for 10 minutes in SDS sample buffer, and then analyzed by SDS-PAGE and immunoblotting.
Protein samples were separated by SDS-PAGE and then transferred to […] nitrocellulose membranes. Membranes were incubated overnight with primary antibodies against phospho-Tyr81 eNOS, phospho-Ser1177 eNOS, phospho-Ser633 eNOS, eNOS, phospho-Ser473 Akt, Akt, ABL1, VE-PTP, GAPDH, β-actin, followed by species-specific secondary antibodies anti-IgG conjugated with HRP. Proteins were visualized by enhanced chemiluminescence.

human endothelial cells = assay: NO assay (nitrite in supernatant) in human endothelial cells; format: cell-based; conditions: 0.3-30 μmol/L, 30 minutes
Description: Confluent human endothelial cell monolayers were cultured overnight in MCDB131 containing 0.1% BSA and sepiapterin (10 μmol/L). The monolayers were then incubated with increasing concentrations of Compound 2 (0.3-30 μmol/L) or solvent (DMSO) for 30 minutes. In separate experiments, cells treated with a control siRNA or siRNA directed against ABL1 were cultured in MCDB131 containing 0.1% BSA and sepiapterin (10 μmol/L), and then treated with Compound 2 (30 μmol/L) or solvent (DMSO) for 30 minutes before the addition of Yoda1 (1 μmol/L) for an additional 30 minutes. HEK293 cells co-transfected with wild-type eNOS and wild-type ABL1, DN ABL1, or GFP (as a control) were cultured overnight in minimal essential medium containing 0.5% heat-inactivated FCS and sepiapterin (10 μmol/L). Aliquots of the culture media were collected before and after each treatment. Potential cell debris was removed by centrifugation of the media at 1000 rpm for 5 minutes. NO release was assessed by determining the amount of nitrite in the cell supernatants using a Nitric Oxide Analyzer after reaction with iodide and acetic acid under nitrogen at room temperature.
To investigate the role of VE-PTP on the regulation of eNOS, human endothelial cells were treated with increasing concentrations of Compound 2 (for 30 minutes) and the generation of NO was assessed using a NO analyzer.

[1] = system: endothelium-intact aortic rings from WT and Akita mice; assay: Vascular reactivity of aortic rings from diabetic Ins2Akita mice and WT littermates (TABLE 29); set-up: species or system mouse; conditions: 10 μmol/L
Description: (§1) Aortic rings from eight to ten-week old male C57/BL6 mice were used to investigate the effects of Compound 2 on endothelial function. Twelve to fourteen-week old male Ins2^Akita mice and non-diabetic littermate controls were used to study the effects of Compound 2 on diabetes-associated endothelial dysfunction. Myograph experiments were performed in modified Krebs-Henseleit solution. Aortae were dissected free of adhering tissue, cut into 2-mm segments, and mounted in 5-mL myograph chambers under a basal tension of 1 g. Relaxation to cumulatively increasing concentrations (0.001-100 μmol/L) of Compound 2 or solvent (DMSO) was assessed in endothelium-intact aortic segments pre-contracted with phenylephrine (1 μmol/L) in the absence or presence of N^ω-nitro-L-arginine methyl ester (L-NAME; 300 μmol/L).
To determine whether VE-PTP inhibition affects endothelial dysfunction that accompanies diabetes, aortic rings were isolated from 12-week old diabetic Ins2^Akita(Akita) mice and their non-diabetic littermates.
FIG. 29 panels A-B illustrate the effects of Compound 2 on diabetes-induced endothelial dysfunction. FIG. 29 panel A illustrates the effects of Compound 2 on acetylcholine-induced relaxation of endothelium-intact aortic rings from WT and Akita mice.

[2] = system: endothelium-intact aortic rings; assay: Vascular reactivity of aortic rings from C57/BL6 mice (myograph, TABLE 28); set-up: species or system mouse
Description: as §1
To assess the role for VE-PTP in the regulation of vascular reactivity, endothelium-intact rings of murine aortae were incubated with increasing concentrations of Compound 2.
FIG. 24 panels A-D illustrate the effect of Compound 2 on endothelial function. FIG. 24 panel A illustrates concentration dependent effect of Compound 2 on the tone of endothelium-intact aortic rings. Experiments were performed in the absence and presence of an eNOS inhibitor, L-NAME (300 μmol/L). FIG. 24 panels B-D illustrate the effect of solvent (Sol, DMSO) and Compound 2 (1, 3, or 10 μmol/L) on the contractile response to phenylephrine (PE; FIG. 24 panel B), and relaxation induced by either sodium nitroprusside (SNP; FIG. 24 panel C) or acetylcholine (ACh; FIG. 24 panel D). The dotted line in FIG. 24 panel D represents responses in endothelium-denuded aortic rings; n=5 mice/group.

[3] = 30 μmol/L 30 minutes, then Yoda1 1 μmol/L 30 min
[4] = arteries precontracted with phenylephrine, n=5 mice/group

Structure (SMILES): CCc1nc([C@H](Cc2ccc(NS(=O)(=O)O)cc2)NC(=O)[C@H](Cc2ccccc2)NC(=O)OC)cs1 [Compound 2]
- Yoda1-induced phosphorylation of Akt on Ser473 and eNOS on Ser1177 (eNOS; [3]): also increased
- Yoda1-induced phosphorylation of eNOS on Ser633 (eNOS; [3]): not affected
- Yoda1-induced phosphorylation of eNOS on Tyr81 (eNOS; [3]): markedly enhanced
- eNOS phosphorylation on Tyr81 and Ser1177 (eNOS; 0.3-30 μmol/L, 30 minutes): led to phosphorylation of eNOS on Tyr81 and Ser1177
- basal NO production (nitrite in supernatant) (human endothelial cells): enhanced basal NO production
- acetylcholine-induced and NO-mediated relaxation in aortic rings from diabetic mice ([1]; Ins2Akita mice): restored
- elevated phenylephrine-induced contraction of aortic rings ([1]; Ins2Akita mice): not influenced
- acetylcholine-induced endothelium-dependent relaxation ([1]; tissues from non-diabetic mice): potentiated responses
- phenylephrine-induced contractions and sodium nitroprusside-induced relaxations ([2]; 1, 3, or 10 μmol/L, 30 minutes): Neither phenylephrine-induced contractions nor sodium nitroprusside-induced relaxations were affected
- acetylcholine-induced relaxations of endothelium-intact vessels ([2]; 1, 3, or 10 μmol/L, concentration-dependent): significantly enhanced
- relaxation response in presence of eNOS inhibitor L-NAME ([2]; L-NAME 300 μmol/L): abolished
- Emax of concentration-dependent relaxation [2, 4]: 73.4±2.9%
- pEC50 of concentration-dependent relaxation [2, 4]: 5.14±0.05 log mol/L
